Laboratory results as given in PMC8011784, “Chronic peptide-based GIP receptor inhibition exhibits modest glucose metabolic changes in mice when administered either alone or combined with GLP-1 agonism” (PLoS ONE, 2021).

Legend:
Type in all cases: in vivo, mouse
DIO mice [1] = experiment: Chronic GIPA-1 study: body weight and food intake in DIO mice; conditions: 28 days, HFD; liraglutide 0.2 mg/kg/day SC, GIPA-1 ~4.5 mg/kg/day osmotic minipump; n = 10; vs vehicle (combination: vs liraglutide)
Protocol: (§1) 23-week-old male C57BL/6JRj mice (n = 40), fed a HFD (SSNIFF® diet #12492[60% fat, 20% protein, 20% carbohydrate]) for 14 weeks, were distributed into 4 test groups and received daily either vehicle, liraglutide (0.2 mg/kg/day), GIPA-1 (~4.5 mg/kg/day) or liraglutide + GIPA-1 for 4 weeks while still maintained on HFD. GIPA-1 was delivered using minipumps in order to achieve sufficient GIPR antagonism based on the properties of this peptide (Fig 2A). Liraglutide was dissolved in phosphate-buffered saline (PBS) plus 0.1% bovine serum albumin (BSA) (vehicle 1) and GIPA-1 in DMSO/propylene glycol (50/50 volume per volume) (vehicle 2). 100 μL minipumps (Alzet) were filled with GIPA-1 (30 mg/mL) or vehicle 2 and kept in 0.9% saline at 37°C overnight. […] Fasted (4 hrs) blood glucose and insulin levels were measured on study day -3, 14 and 27. […] Blood glucose was measured before their daily dosing and at 0, 15, 30 60, 120, 180 min after glucose administration. Plasma insulin was measured at 0 and 15 min. Whole body weight and food intake were measured throughout the study period. […]
Fig 2 Effects of chronic GIPR antagonism on body weight, food intake, and fasting blood glucose and insulin. […] Statistical analysis was calculated using two-way ANOVA with Tukey’s post-hoc test and one-way ANOVA for AUC with Dunnett’s post-hoc test. *: p< 0.05, **: p < 0.01, ***: p < 0.001, ****: p<0.0001 compared to vehicle.

DIO mice [2] = experiment: Chronic GIPA-1 study: fasting blood glucose, plasma insulin and HOMA-IR in DIO mice; conditions: 4 h fasted, liraglutide 0.2 mg/kg/day SC, GIPA-1 ~4.5 mg/kg/day minipump, n = 10, vs vehicle
Protocol: as §1, with “2).” for “2). 100 μL minipumps (Alzet) were filled with GIPA-1 (30 mg/mL) or vehicle 2 and kept in 0.9% saline at 37°C overnight.”
Fasting blood glucose was measured using a BIOSEN c-Line glucose meter (EKF-Diagnostics), insulin was measured using the Meso Scale Diagnostics platform, TG and TC were measured using commercial kits (Roche Diagnostics) on the Cobas C-501 autoanalyzer (Roche), and FFA levels were measured using a Wako Chemicals kit on the Cobas C-501 autoanalyzer, all according to the manufacturers’ instructions. […]

DIO mice [3] = experiment: Chronic GIPA-1 study: OGTT and insulin responses in DIO mice; conditions: n = 10
Protocol: as §1, with “overnight. The minipump was placed subcutaneously through a 1-cm long incision in the neck with the animal under isoflurane anesthesia. Animals were treated with analgesics on day 0–3 (NSAID, carprofen 50 mg/kg SC QD).” for “overnight.”
Fig 3 Effects of GIPA-1 and GIPA-2 on oral glucose tolerance and insulin responses in DIO mice. […] Statistical analysis was calculated using two-way ANOVA with Tukey’s post-hoc test and one-way ANOVA with Dunnett’s post-hoc test. *: p< 0.05, **: p < 0.01, ***: p < 0.001, ****: p<0.0001 compared to vehicle.

## liraglutide
DIO mice [1]
  body weight: reduced both body weight and food intake
  cumulative food intake: reduced both body weight and food intake
DIO mice [2]; days 14 and 27
  fasting blood glucose: significant reductions for the duration of the study
DIO mice [2]
  fasting plasma insulin: reduced in both the liraglutide and combination groups. This was significant for the combination, but not for liraglutide monotherapy
DIO mice [3]; day 21, fasted, GIPA-1 study
  insulin at time 0 of the OGTT: liraglutide-induced decrement in insulin at time 0 of the OGTT
DIO mice [3]; day 21, GIPA-1 study
  baseline blood glucose (-30 min) of OGTT: lower in the liraglutide group and in the combination group
DIO mice [3]; day 21, oral glucose 2 g/kg, liraglutide 0.2 mg/kg SC, GIPA-1 ~4.5 mg/kg/day minipump
  glucose excursion in OGTT: beneficial glucose lowering effects of liraglutide
